Experimental data published in publication PMC2578980 (The Yale Journal of Biology and Medicine, 1998).

Key:
[1] = molecular target: T1, human CCK-BR (Homo sapiens, UniProt P32239); test: Inositol phosphate accumulation; type: cell-based; conditions: for effect on inositol phosphate production (intrinsic activity): high concentrations of non-peptide ligands
T1 sequence (P32239 1-447): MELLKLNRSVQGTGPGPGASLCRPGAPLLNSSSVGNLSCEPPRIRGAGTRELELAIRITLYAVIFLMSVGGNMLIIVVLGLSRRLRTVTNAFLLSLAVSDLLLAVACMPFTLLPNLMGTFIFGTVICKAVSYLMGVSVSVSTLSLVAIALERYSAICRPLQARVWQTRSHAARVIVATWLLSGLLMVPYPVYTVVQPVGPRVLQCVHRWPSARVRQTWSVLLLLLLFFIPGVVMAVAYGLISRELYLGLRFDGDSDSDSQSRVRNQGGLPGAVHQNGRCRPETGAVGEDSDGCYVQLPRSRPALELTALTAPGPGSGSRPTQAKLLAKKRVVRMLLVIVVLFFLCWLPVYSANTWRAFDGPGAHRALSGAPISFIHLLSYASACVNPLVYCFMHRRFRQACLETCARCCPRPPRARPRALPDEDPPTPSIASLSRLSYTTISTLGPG

[2] = molecular target: T1, human CCK-BR; conditions: human CCK-BR expressed in CHO instead of COS-7 cells; cited from earlier work
[3] = tested on: gastric acid secretion; conditions: cited from earlier work
[4] = molecular target: T1, human CCK-BR

Row | SMILES | effect on inositol phosphate production (intrinsic activity) [1] | functional classification in CHO cells [2] | inositol phosphate formation, percent of the CCK-8 induced maximum [1] | intrinsic activity in the rat [3] | blockade of CCK-8 induced inositol phosphate formation [4]
1 | Cc1cccc(NC(=O)N[C@@H]2N=C(c3ccccc3)c3ccccc3N(C)C2=O)c1 [L-365,260] | little, if any, effect | – | – | – | –
2 | CC1(C)[C@H]2CC[C@@]1(C)[C@H](OC(=O)N[C@](C)(Cc1c[nH]c3ccccc13)C(=O)NC[C@H](NC(=O)CCC(=O)O)c1ccccc1)C2 [PD 135,158] | – | "true" antagonist | 23% | – | –
3 | C[C@](Cc1c[nH]c2ccccc12)(NC(=O)OC1C2CC3CC(C2)CC1C3)C(=O)NC[C@H](NC(=O)/C=C/C(=O)O)c1ccccc1 (stereo partly shown) [PD 136,450] | – | – | 43% | no appreciable intrinsic activity | –
4 | Cc1cccc(NC(=O)N[C@@H]2N=C(c3ccccc3)c3ccccc3N(CC(=O)c3ccccc3C)C2=O)c1 [YM022, (R)-1-[2,3-dihydro-1-(2'-methylphenacyl)-2-oxo-5-phenyl-1H-1,4-benzodiazepin-3-yl]-3-(3-methylphenyl)urea] | little, if any, effect | – | – | – | completely blocks
